Measurements taken from patent US8168619B1, “Hormonal composition based on a progestational agent and an oestrogen and use thereof” (Laboratoire Theramex, priority 1999, dated 2012).
Like-named read-outs stand apart in the source and are kept apart here.

How the values were obtained:
endometrium [1] = conditions: cited from earlier work
[2] = NEUMANN publication; cited from earlier work
[3] = Dose having a contraceptive effect (literature); format: in vivo; conditions: NEUMANN; reference progestative norgestrel (=1)
Source text: (§1) 2) Apart from the above, it would be reasonable to think that the doses claimed should be based on data from clinical pharmacology and/or clinical data previously published and commonly accepted. Now, if the doses defined as in the PLUNKETT patents are considered, it is easy to see that in most cases the active doses published already a long time ago, i.e. before the said patents were filed (NEUMANN, 1977) or more recently (KUHL, 1996), are very coherent but only rarely lie within the dose ranges claimed in the patents in the name of PLUNKETT (Table 2).

ovulation [4] = conditions: cited from earlier work
ovulation [5] = assay: Dose inhibiting ovulation (literature); format: in vivo; conditions: NEUMANN; reference progestative norgestrel (=1)
Source text: as §1

endometrial cells = assay: Sequential estrogen-progestative therapy: histological appearance of endometrium biopsy; format: in vivo, women; conditions: for Number of mitoses (% of section in which mitoses were present), Glands: with 30 μg ethinyl estradiol, biopsy Day 17-20 of second cycle
Description: (§2) Menopausal women, whether naturally or as the result of surgery, were subjected to a sequential estrogen-progestative therapy. From Day 1 to Day 12 they received 30 μg of ethinyl estradiol and then, from Day 13 to Day 22, the same dose of ethinyl estradiol associated with different doses of nomegestrol acetate or chlormadinone acetate. The doses were as follows:
(§3) The number of women was between 2 and 11, depending on the group. There was then a therapeutic pause of 7 days followed by a second treatment cycle.
(§4) The parameters taken into account were as follows: • the interval before periods commenced after the therapy had been interrupted, following the first and second treatment cycles; • the histological appearance of the endometrium recovered in a biopsy carried out between Day 17 and Day 20 of the second cycle.

menopausal women = assay: Sequential estrogen-progestative therapy: interval before periods after therapy is interrupted; format: in vivo; conditions: Day 13-22, with 30 μg ethinyl estradiol
Description: as §2, §3, §4

endometrium [6] = assay: Dose inducing transformation of the endometrium (literature); format: in vivo; conditions: NEUMANN; reference progestative norgestrel (=1)
Source text: as §1

[7] = NEUMANN publication; cited from earlier work; remark: listed apart in the source

CC(=O)O[C@]1(C(C)=O)CC[C@H]2[C@@H]3C=C(Cl)C4=CC(=O)[C@@H]5C[C@@H]5[C@]4(C)[C@H]3CC[C@@]21C [CIP acetate, Cyproterone acetate]
Dose necessary to induce transformation of the endometrium (1) (endometrium [1]; KUHL): 2000 µg/day
Dose necessary to induce transformation of the endometrium (1) (endometrium [1]; NEUMANN publication): 1000 µg/day
Dose necessary to have a contraceptive effect (4) [2]: 2000 µg/day
Dose ratio, Contraception (4) [3]: 8.0
Dose necessary to inhibit ovulation (3) (ovulation [4]; KUHL): 1000 µg/day
Dose necessary to inhibit ovulation (3) (ovulation [4]; NEUMANN publication): 1000 µg/day
Dose ratio, Ovulation (3) (ovulation [5]): 10.0

CC(=O)O[C@]1(C(C)=O)CC[C@H]2[C@@H]3C=C(Cl)C4=CC(=O)CC[C@]4(C)[C@H]3CC[C@@]21C [Chlormadinone acetate, chlormadinone acetate]
Number of mitoses (% of section in which mitoses were present), Glands (endometrial cells; 0.1 mg/day): 90%
Mitosis in glandular cells (endometrial cells; 1 mg/day, sequential therapy with 30 μg ethinyl estradiol): mitosis is still evident
Number of mitoses (% of section in which mitoses were present), Glands (endometrial cells; 1 mg/day): 50%
Number of mitoses (% of section in which mitoses were present), Glands (endometrial cells; 2 mg/day): 0%
Number of mitoses (% of section in which mitoses were present), Glands (endometrial cells; 5 mg/day): 0%
Number of mitoses (% of section in which mitoses were present), Glands (endometrial cells; 10 mg/day): 0%
Interval before the appearance of periods after the therapy is discontinued (menopausal women; 0.1 mg/day): -2.3 ± 0.5 days
Interval before the appearance of periods after the therapy is discontinued (menopausal women; 0.5 mg/day): 2.0 ± 0.6 days
Interval before the appearance of periods after the therapy is discontinued (menopausal women; 1.0 mg/day): 3.8 ± 0.3 days
Interval before the appearance of periods after the therapy is discontinued (menopausal women; 2.0 mg/day): 3.8 ± 0.3 days
Interval before the appearance of periods after the therapy is discontinued (menopausal women; 5 mg/day): 5.5 ± 1.5 days
Interval before the appearance of periods after the therapy is discontinued (menopausal women; 10 mg/day): 5.5 ± 0.5 days

C#C[C@]1(O)CC[C@H]2[C@@H]3CCC4=CCCC[C@@H]4[C@H]3CC[C@@]21C [Lynoestrenol]
Dose necessary to induce transformation of the endometrium (1) (endometrium [1]; NEUMANN publication): 5000 µg/day
Dose ratio, Endometrium (1) (endometrium [6]): 4.2
Dose necessary to have a contraceptive effect (4) [2]: 2500 µg/day
Dose ratio, Contraception (4) [3]: 10.0

CC(=O)O[C@]1(C(C)=O)CC[C@H]2[C@@H]3C[C@H](C)C4=CC(=O)CC[C@]4(C)[C@H]3CC[C@@]21C [MPA, medroxyprogesterone acetate]
Dose necessary to induce transformation of the endometrium (1) (endometrium [1]; NEUMANN publication): 5500 µg/day
Dose necessary to have a contraceptive effect (4) [2]: 5000 µg/day
Dose ratio, Contraception (4) [3]: 20.0
Dose necessary to produce an adequate delay in the onset of periods (2), Menstruation [7]: 25000 µg/day

C#C[C@]1(OC(C)=O)CC[C@H]2[C@@H]3CCC4=CC(=O)CC[C@@H]4[C@H]3CC[C@@]21C [Norethisterone acetate]
Dose necessary to induce transformation of the endometrium (1) (endometrium [1]; NEUMANN publication): 4500 µg/day
Dose ratio, Endometrium (1) (endometrium [6]): 3.8
Dose necessary to have a contraceptive effect (4) [2]: 1000 µg/day
Dose ratio, Contraception (4) [3]: 4.0
Dose necessary to inhibit ovulation (3) (ovulation [4]; NEUMANN publication): 800 µg/day

C#C[C@]1(O)CC[C@H]2[C@@H]3CCC4=CC(=O)CC[C@@H]4[C@H]3CC[C@@]21C [Norethisterone]
Dose necessary to induce transformation of the endometrium (1) (endometrium [1]; KUHL): 10000 µg/day
Dose necessary to induce transformation of the endometrium (1) (endometrium [1]; NEUMANN publication): 12500 µg/day
Dose necessary to have a contraceptive effect (4) [2]: 1000 µg/day
Dose ratio, Contraception (4) [3]: 4.0
Dose necessary to inhibit ovulation (3) (ovulation [4]; KUHL): 400 µg/day
Dose necessary to inhibit ovulation (3) (ovulation [4]; NEUMANN publication): 800 µg/day
Dose necessary to produce an adequate delay in the onset of periods (2), Menstruation [7]: 5000 µg/day

C#C[C@]1(O)CC[C@H]2[C@@H]3CCC4=C(CCC(=O)C4)[C@H]3CC[C@@]21C [Norethynodrel]
Dose necessary to induce transformation of the endometrium (1) (endometrium [1]; NEUMANN publication): 10000 µg/day
Dose ratio, Endometrium (1) (endometrium [6]): 8.3
Dose necessary to have a contraceptive effect (4) [2]: 2500 µg/day
Dose ratio, Contraception (4) [3]: 10.0
Dose necessary to inhibit ovulation (3) (ovulation [4]; NEUMANN publication): 6000 µg/day
Dose necessary to produce an adequate delay in the onset of periods (2), Menstruation [7]: 7500 µg/day
